{"source": "patent US8093210B2", "about": "“Treatment of sepsis with 5-ethyl-1-phenyl-2(1H)-pyridone” (Solanan, Inc., priority 2008, dated 2012)", "key": {"[1]": {"test_system": "LPS/D-galactosamine model of sepsis", "assay": "Serum alanine and aspartate transaminase in LPS/D-galactosamine model of sepsis (Example 5)", "assay_type": "in vivo, mice", "settings": "200 mg/kg ip with LPS (10 μg/kg)/D-galactosamine (600 mg/kg)", "experimental": "(§1) Mice were treated simultaneously with LPS (10 μg/kg) and D-galactosamine (600 mg/kg) (Galanos C, Freudenberg M A, Reutter W. Proc Natl Acad Sci USA. 1979, 76 (11):5939-43) and 5-EPP (200 mg/kg) by intraperitoneal route in a separate set of experiments. They were anesthetized with halothane and blood was collected at different times by cardiac puncture and centrifuged to separate serum. The serum levels of alanine transaminase (ALT) and aspartate transaminase (AST) were measured by a commercial diagnostic company (Idexx Laboratories). The serum levels of tumor necrosis factor-alpha (TNF-α), interleukin-6 (IL-6) and interleukin-12 (IL-12) were determined by commercially available mouse enzyme-linked immunosorbent assay (ELISA) kits (BD BioSciences, San Jose, Calif.).\n(§2) The methodology utilized in Example 4 was used to measure and analyze the serum enzyme data for statistical significance. The serum levels of proinflammatory cytokines between the 5-EPP treated and saline control groups were analyzed for statistical significance by one-way ANOVA and a Tukey's multiple comparison test (Prism™ for Windows 4.02, Graphpad Software, Inc. San Diego, Calif.)."}, "IL-6": {"test_system": "IL-6", "assay": "Serum IL-6 (ELISA) in LPS/D-galactosamine model of sepsis (Example 5)", "assay_type": "in vivo, mice", "settings": "90 minutes after the treatment", "experimental": "as §1, with “Proc Natl Acad Sci USA. 1979, 76 (11):5939-43) and 5-EPP (200 mg/kg) by intraperitoneal route in a separate set of experiments.” left out\nas §2"}, "IL-12": {"test_system": "IL-12", "assay": "Serum IL-12 (ELISA) in LPS/D-galactosamine model of sepsis (Example 5)", "assay_type": "in vivo, mice", "settings": "90 minutes after the treatment", "experimental": "as §1, with “Proc Natl Acad Sci USA. 1979, 76 (11):5939-43) and 5-EPP (200 mg/kg) by intraperitoneal route in a separate set of experiments.” left out\nas §2"}, "TNF-α in THP-1 cells": {"test_system": "TNF-α in THP-1 cells", "assay": "Secreted and cell-associated TNF-α in PMA-transformed THP-1 cells exposed to LPS (ELISA, Example 6)", "assay_type": "cell-based, human", "settings": "3 hr, mean ± SEM, four replicates; for Secreted TNF-α: THP-1, 1 ng/mL LPS; for Cell-associated TNF-α: THP-1 lysate, 1 ng/mL LPS", "experimental": "The effects of 5-EPP on secreted and cell associated TNF-α was examined in vitro using phorbol myristate acetate-transformed (PMA; Sigma, St. Louis, Mo.) human monocytic cells, THP-1 (ATCC, Manassas, Va.) according to the technique described by Grattendick et al. (International Immunopharmacology 2008, 8; 679-87). Briefly, cells were incubated for 3 hr on 96-well plates with culture media, 1 ng/mL LPS, or 1 ng/mL LPS 0-200 μg/mL 5-EPP before culture media were collected and analyzed for the presence of secreted TNF-α via a commercially available enzyme-linked immunosorbent assay (ELISA) kit (BD Biosciences, San Diego, Calif.). Separately, identically treated cells were lysed and their cell-associated TNF-α levels were determined via ELISA. All treatment groups were simultaneously compared using one-way ANOVA and Tukey's multiple comparison tests.\nThe values are expressed in pg/mL as mean±standard error of the mean for four replicates at all concentrations in each case."}, "THP-1 cells": {"test_system": "THP-1 cells", "assay": "MTS cytotoxicity analysis on THP-1 cells", "assay_type": "cell-based", "settings": "LPS 1 ng/mL and 5-EPP 0-500 μg/mL for 12 hours", "experimental": "Cytotoxicity analysis was performed on THP-1 cells treated with various concentrations of 5-EPP using the MTS (3-(4,5-dimethylthiazol-2-yl)-5-(3-carboxymethoxyphenyl)-2-(4-sulfophenyl)-2H-tetrazolium, inner salt) assay (Promega, Madison, Wis.)."}, "[2]": {"test_system": "LPS/D-galactosamine-induced mortality", "assay": "LPS/D-galactosamine-induced mortality in mice, survival curve (Example 7, FIG. 2)", "assay_type": "in vivo", "settings": "LPS 20 μg/kg + D-galactosamine 600 mg/kg, monitored 4 days", "experimental": "The effects of treatment with 5-EPP on LPS/D-galactosamine-induced mortality was investigated in mice. At least 10 mice in each group were challenged with either a lethal dose of LPS (20 μg/kg) and D-galactosamine (600 mg/kg) or the same dose of LPS/D-galactosamine+different doses of 5-EPP by intraperitoneal route and the morality in each group was monitored at different times for 4 days in order to evaluate the protective effects of 5-EPP against LPS/D-galactosamine-induced mortality.\nHowever, the survival of mice treated with 25 mg/kg of 5-EPP was 45% and 100% at 50 mg/kg, 100 mg/kg and 200 mg/kg with p≦0.0001 as determined by Chi square test."}, "[3]": {"assay": "pH of 20 mg/mL solutions (Example 9)", "assay_type": "physicochemical", "experimental": "The pH of two freshly prepared solutions of the compound each at 20 mg/mL concentration was measured with a calibrated Mettler MP-220 pH meter equipped with a pH electrode (model 413). The pH of the solution made in water averaged 7.4 as compared to solutions made in isotonic saline in which the pH averaged 6.21 using triplicate samples in each case, as shown in the table below."}}, "note": "Several values for one entry are separate records, joined by “and”; a condition that tells them apart may be missing. Identical values can stand only once."}
{"smiles": "CCc1ccc(=O)n(-c2ccccc2)c1", "note": "[5-EPP, 5-ethyl-1-phenyl-2-(1H)-pyridone]", "values": [{"measurement": "serum level of alanine transaminase", "setting": "[1]; After 3 Hours", "result": "109.4 ± 6.1", "unit": "U/L"}, {"measurement": "serum level of aspartate transaminase", "setting": "[1]; After 3 Hours", "result": "131.3 ± 11.9", "unit": "U/L"}, {"measurement": "serum level of alanine transaminase", "setting": "[1]; After 6 Hours", "result": "130.0 ± 8.9", "unit": "U/L"}, {"measurement": "serum level of aspartate transaminase", "setting": "[1]; After 6 Hours", "result": "152.38 ± 14.4", "unit": "U/L"}, {"measurement": "serum level of alanine transaminase", "setting": "[1]; After 12 Hours", "result": "109.5 ± 8.3", "unit": "U/L"}, {"measurement": "serum level of aspartate transaminase", "setting": "[1]; After 12 Hours", "result": "173.38 ± 13.0", "unit": "U/L"}, {"measurement": "serum level of IL-6", "setting": "IL-6; 50 mg/kg", "result": "9,980 ± 564 pg/mL"}, {"measurement": "serum level of IL-6", "setting": "IL-6; 100 mg/kg", "result": "5,111 ± 343 pg/mL"}, {"measurement": "serum level of IL-6", "setting": "IL-6; 200 mg/kg", "result": "3,578 ± 421 pg/mL"}, {"measurement": "serum level of IL-12", "setting": "IL-12; 50 mg/kg", "result": "2,809 ± 325 pg/mL"}, {"measurement": "serum level of IL-12", "setting": "IL-12; 100 mg/kg", "result": "1,371 ± 124 pg/mL"}, {"measurement": "serum level of IL-12", "setting": "IL-12; 200 mg/kg", "result": "870 ± 99", "unit": "pg/mL"}, {"measurement": "Secreted TNF-α", "setting": "TNF-α in THP-1 cells; 10 μg/mL 5-EPP", "result": "5382.8 ± 91.8", "unit": "pg/mL"}, {"measurement": "Secreted TNF-α", "setting": "TNF-α in THP-1 cells; 33 μg/mL 5-EPP", "result": "3261.5 ± 94.1", "unit": "pg/mL"}, {"measurement": "Secreted TNF-α", "setting": "TNF-α in THP-1 cells; 100 μg/mL 5-EPP", "result": "2073.7 ± 60.7", "unit": "pg/mL"}, {"measurement": "Secreted TNF-α", "setting": "TNF-α in THP-1 cells; 200 μg/mL 5-EPP", "result": "1469.7 ± 58.9", "unit": "pg/mL"}, {"measurement": "Cell-associated TNF-α", "setting": "TNF-α in THP-1 cells; 10 μg/mL 5-EPP", "result": "35.4 ± 3.1", "unit": "pg/mL"}, {"measurement": "Cell-associated TNF-α", "setting": "TNF-α in THP-1 cells; 33 μg/mL 5-EPP", "result": "25.9 ± 1.6", "unit": "pg/mL"}, {"measurement": "Cell-associated TNF-α", "setting": "TNF-α in THP-1 cells; 100 μg/mL 5-EPP", "result": "19.0 ± 0.9", "unit": "pg/mL"}, {"measurement": "Cell-associated TNF-α", "setting": "TNF-α in THP-1 cells; 200 μg/mL 5-EPP", "result": "10.1 ± 1.3", "unit": "pg/mL"}, {"measurement": "concentration at which cytotoxicity appears (no cytotoxicity below)", "setting": "THP-1 cells", "result": "at least 300 μg/mL"}, {"measurement": "survival", "setting": "[2]; 25 mg/kg ip", "result": 45, "unit": "%"}, {"measurement": "survival", "setting": "[2]; 50 mg/kg ip", "result": 100, "unit": "%"}, {"measurement": "survival", "setting": "[2]; 100 mg/kg ip", "result": 100, "unit": "%"}, {"measurement": "survival", "setting": "[2]; 200 mg/kg ip", "result": 100, "unit": "%"}, {"measurement": "pH of the solution, average", "setting": "[3]; 20 mg/mL in isotonic saline", "result": 6.21}, {"measurement": "pH of the solution, average", "setting": "[3]; 20 mg/mL in water", "result": 7.4}, {"measurement": "pH", "setting": "[3]; DI Water, final 5-EPP 20.0 mg/mL", "result": "7.29 and 7.24"}, {"measurement": "pH", "setting": "[3]; Isotonic saline, final 5-EPP 20.0 mg/mL", "result": 6.13}, {"measurement": "pH", "setting": "[3]; Isotonic saline, final 5-EPP 20.1 mg/mL", "result": 6.20}]}
